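Assay format: 96-well plates, 48-hour exposure. GI50 is the concentration that inhibits growth by half. The concentration for full growth arrest is given as TGI.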
What was measured:
Assay in all cases: NCI anticancer screen, dose series, 48 h
TK-10 renal = tested on: TK-10 renal
SK-MEL-2 melanoma = tested on: SK-MEL-2 melanoma
KM12 colon = tested on: KM12 colon
SK-MEL-5 melanoma = tested on: SK-MEL-5 melanoma
MOLT-4 leukemia = tested on: MOLT-4 leukemia
UO-31 renal = tested on: UO-31 renal
CAKI-1 renal = tested on: CAKI-1 renal
SW-620 colon = tested on: SW-620 colon
OVCAR-3 ovarian = tested on: OVCAR-3 ovarian
DU-145 prostate = tested on: DU-145 prostate

| Compound | TGI (TK-10 renal) [µM] | TGI (SK-MEL-2 melanoma) [µM] | TGI (KM12 colon) [µM] | TGI (SK-MEL-5 melanoma) [µM] | TGI (MOLT-4 leukemia) [µM] | TGI (UO-31 renal) [µM] | TGI (CAKI-1 renal) [µM] | TGI (SW-620 colon) [µM] | TGI (OVCAR-3 ovarian) [µM] | GI50 (TK-10 renal) [µM] | GI50 (SK-MEL-2 melanoma) [µM] | GI50 (DU-145 prostate) [µM] | TGI (DU-145 prostate) [µM] | GI50 (KM12 colon) [µM] | GI50 (SK-MEL-5 melanoma) [µM] | GI50 (MOLT-4 leukemia) [µM] | GI50 (UO-31 renal) [µM] | GI50 (OVCAR-3 ovarian) [µM] | GI50 (SW-620 colon) [µM] | GI50 (CAKI-1 renal) [µM] |
| --- | --- | --- | --- | --- | --- | --- | --- | --- | --- | --- | --- | --- | --- | --- | --- | --- | --- | --- | --- | --- |
| CSc1ccc(Cc2cc(C(C)(C)C)cc(C(C)(C)C)c2O)cc1 | 25.7 | 16.3 | 23.4 | 28.9 | 23.8 | 30.7 | 30.5 | 29.7 | – | – | – | – | – | – | – | – | – | – | – | – |
| CC1=NC(C)=C(/C(C)=N/NC(=O)c2ccccc2O)C(C)/C1=C(/C)NNC(=O)c1ccccc1O (configuration not stated) | 98.8 | – | > 100 | 38.9 | 23.8 | 43.1 | > 100 | > 100 | 66.7 | – | – | – | – | – | – | – | – | – | – | – |
| Oc1ccc(O)c(-n2cccn2)c1 | > 100 | 95.7 | > 100 | > 100 | 59.5 | > 100 | 33.3 | 73.7 | – | – | – | – | – | – | – | – | – | – | – | – |
| COc1ccc(-c2c(NC(=O)Nc3ccc(Cl)c(C(F)(F)F)c3)cnn2-c2ccc(S(N)(=O)=O)cc2)cc1 | 15.3 | 5.52 | 11.6 | 3.85 | 5.97 | 15.1 | – | 13.8 | 6.53 | 3.85 | 2.42 | 3.46 | 12.1 | 3.04 | 1.9 | 2.01 | 3.39 | 2.4 | 3.86 | – |
| CC(=O)OC1CC2C(C)(C)C(=O)C=C[C@]2(C)C2CCC3(C)C(c4ccoc4)C(=O)C4OC43[C@]12C (some centres not stated) | > 100 | 31.9 | 29.3 | 30 | 50.8 | 37.6 | > 100 | 42 | 34.4 | – | – | – | – | – | – | – | – | – | – | – |
| C[N+]1(CCNP(=S)(NCC[N+]2(C)Cc3c(ccc4c3OCO4)C3C2c2cc4c(cc2C[C@@H]3O)OCO4)NCC[N+]2(C)Cc3c(ccc4c3OCO4)C3C2c2cc4c(cc2C[C@@H]3O)OCO4)Cc2c(ccc3c2OCO3)C2C1c1cc3c(cc1C[C@H]2O)OCO3 (some centres not stated) | – | < 0.00191 | – | – | – | – | 69.5 | – | – | 8.2 | – | – | – | 1.78 | 1.89 | – | 4.3 | 1.68 | 1.4 | – |
| COC(=O)[C@@H](C)C[C@H](Cc1ccc(F)cc1)NC(=O)c1csc([C@@H](C[C@H](C(C)C)N(C)C(=O)[C@@H](NC(=O)[C@H]2CCCCN2C)C2CC2)OC(C)=O)n1 | > 25 | > 25 | > 25 | 1.46 | > 25 | > 25 | – | > 25 | 0.633 | > 13.8 | 0.169 | 0.238 | > 9.05 | 0.28 | 0.0957 | 0.338 | 1.91 | 0.0723 | 0.129 | – |
| NC1=C(O)/C(=N/NS(=O)(=O)c2ccccc2)C(c2ccc3c(c2)OCO3)O1 (configuration not stated) | > 100 | > 100 | > 100 | > 100 | > 100 | > 100 | > 100 | > 100 | > 100 | – | – | – | – | – | – | – | – | – | – | – |
| CCCCSC1CCSc2c1ccc1ccccc21 (configuration not stated) | > 100 | > 100 | > 100 | > 100 | > 100 | > 100 | > 100 | – | – | – | – | – | – | – | – | – | – | – | – | – |
| COc1ccc(C2=NN(C(C)=O)c3nc4ccccc4nc3O2)cc1 | 52.1 | > 100 | > 100 | – | > 100 | 90.4 | – | > 100 | > 100 | – | – | – | – | – | – | – | – | – | – | – |
| Cc1ccc(S(=O)(=O)NC(Cc2ccccc2)C(=O)CCl)cc1 (configuration not stated) | 30.9 | 26 | – | 25 | – | 27 | – | 24.1 | 29.2 | – | – | – | 31.6 | – | – | – | – | – | – | – |
| O=C(NC1CCCCC1)NC12CC3CC(CC(F)(C3)C1)C2 | > 100 | > 100 | > 100 | > 100 | > 100 | > 100 | – | > 100 | > 100 | – | – | – | – | – | – | – | – | – | – | – |
| CC(=O)NNc1ncc(C(=O)/C=C/c2ccccc2C)s1 | > 100 | > 100 | > 100 | > 100 | > 100 | > 100 | > 100 | > 100 | > 100 | – | – | – | – | – | – | – | – | – | – | – |
| Cc1ccc([N+](=O)[O-])cc1NC(=O)C(=O)Cc1nc2ccc(C(=O)c3ccccc3)cc2[nH]c1=O | > 100 | – | > 100 | > 100 | > 100 | > 100 | > 100 | > 100 | > 100 | – | – | – | – | – | – | – | – | – | – | – |
| C=C1C2CC(OC(C)=O)C3(C)C(c4ccoc4)OC(=O)[C@@H](O)[C@]13OC1C[C@H](OC(C)=O)C(C)(C)[C@H](C(O)C(=O)OC)[C@]12C (some centres not stated) | > 100 | > 100 | > 100 | > 100 | > 100 | > 100 | – | > 100 | > 100 | – | – | – | – | – | – | – | – | – | – | – |
| O=C(O)C(Cc1ccccc1)N=Cc1nc(-c2ccccc2)oc1O (configuration not stated) | > 100 | > 100 | > 100 | > 100 | > 100 | > 100 | > 100 | > 100 | > 100 | – | – | – | – | – | – | – | – | – | – | – |
| CC(=O)N(N=O)c1ccc(N(N=O)C(C)=O)cc1 | – | > 100 | – | > 100 | > 100 | > 100 | > 100 | > 100 | > 100 | – | – | – | – | – | – | – | – | – | – | – |
| O=C(/C=C/c1ccc(-c2ccccc2)cc1)c1ccccc1 | 82.6 | 33.6 | 40.6 | 49 | > 100 | > 100 | > 100 | 42.7 | – | – | – | – | – | – | – | – | – | – | – | – |
| C/C(=N\NC(=O)c1ccccc1O)c1c(O)cc(C)oc1=O | > 100 | > 100 | > 100 | > 100 | > 100 | > 100 | – | > 100 | > 100 | – | – | – | – | – | – | – | – | – | – | – |
| COc1ccc2cc(C(=O)N3CCC([C@@H](C)C(=O)NCc4ccc5c(c4)OCO5)CC3)[nH]c2c1 | > 100 | > 100 | > 100 | > 100 | > 100 | > 100 | – | > 100 | > 100 | > 100 | > 100 | > 100 | > 100 | > 100 | > 100 | > 100 | > 100 | > 100 | > 100 | – |
| CC(=O)CCc1ccc(Oc2c3ccccc3nc3occc23)cc1 | 43.9 | – | 40 | – | – | > 100 | 42 | – | 31.6 | 15.4 | – | 14.8 | 34.1 | 16.1 | – | – | 22.9 | 14 | – | 18.2 |

Reference: PubChem BioAssay (NCI)
